The source of these data is patent US20230130925A1 (priority 2020, published 2023).

For data set [1], the system named is Influenza A.
For data set [2], the system named is SARS-cov2. The note with it: person.

Read-outs that look alike come from different tables or passages of the source.

As to `Cc1nc(Nc2ncc(C(=O)Nc3c(C)cccc3Cl)s2)cc(N2CCN(CCO)CC2)n1` [Dasatinib, reference compound], the tolerability entry in data set [1] (human, in vivo, po) is reported as “tolerates the medication well”.

Consider “Tocilizumab: anti-IL-6 receptor antibody molecule”, for which the clinical course entry in data set [2] (COPD and diabetes, O2 saturation 87%, Tocilizumab 8 mg/Kg by auto-injector) is reported as “stabilization”. Also, the “patient's condition” value in data set [2] (fever >38.5° C., O2 saturation 92%, Tocilizumab 8 mg/Kg intravenous infusion) is recorded as “condition stabilizes initially”. Also, in data set [2] (Tocilizumab 8 mg/Kg by auto-injector), the tolerability entry is on record as “tolerates the medication well”. The “renal and neurological status” value in data set [1] (person with ARDS and shock, after Tocilizumab 600 mg i.v.) is “continues to have renal and neurological deterioration”.

B1: Sarilumab: anti-IL-6 receptor antibody molecule (antibody, chains of the INN, looked up, V domains shown)
VH: EVQLVESGGGLVQPGRSLRLSCAASRFTFDDYAMHWVRQAPGKGLEWVSGISWNSGRIGYADSVKGRFTISRDNAENSLFLQMNGLRAEDTALYYCAKGRDSFDIWGQGTMVTVSS
VL: DIQMTQSPSSVSASVGDRVTITCRASQGISSWLAWYQQKPGKAPKLLIYGASSLESGVPSRFSGSGSGTDFTLTISSLQPEDFASYYCQQANSFPYTFGQGTKLEIK
Turning to B1, the tolerability result in data set [2] (COPD and hypertension, O2 saturation 89%, Sarilumab 200 mg subcutaneous, self-administered) is listed as “tolerates the medication well”.
